Like-named read-outs stand apart in the source and are kept apart here.
Experiments:
[1] = target: T1, glutathione S-transferase (GST)-fusion human ERK2 protein (Homo sapiens, UniProt P28482); assay: ERK2 enzyme assay (LabChip mobility shift); type: biochemical; conditions: 2 nM ERK2, 4.25 μM FL-Peptide 8, 43 μM ATP
T1 construct: purchased Carna Biosciences, Inc; host or cells: E. coli expression system
Outline: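 GST-tagged human ERK2 from E. coli, at 2 nM, was preincubated 15 min at room temperature with compound in Hepes pH 7.5 with MgCl2, DTT and Brij35. The reaction ran 120 min at 25 °C with 4.25 μM FL-Peptide 8 and 43 μM ATP (final). Phosphopeptide fraction was measured by mobility-shift separation to give IC50.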

[2] = target: T2, human PI3Kα protein (Homo sapiens, UniProt P42336); assay: PI3Kα enzyme assay (ADP-Glo kinase assay); type: biochemical; conditions: 3 nM PI3Kα, 50 μM PIP2, 100 μM ATP
T2 construct: purchased Carna Biosciences, Inc; host or cells: Baculovirus expression system
Outline: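 Baculovirus-expressed biotinylated human PI3Kα (3 nM) preincubated 15 min with compound in Tris pH 7.5, MgCl2, BSA, then reacted 60 min at 25 °C with 50 μM PIP2 and 100 μM ATP. ADP quantified by ADP-Glo luminescence; IC50 calculated.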

[3] = IC50 class, read-out: ERK2 Inhibitory Activity
[4] = IC50 class, read-out: PI3Kα Inhibitory Activity

T2 sequence (P42336 whole entry): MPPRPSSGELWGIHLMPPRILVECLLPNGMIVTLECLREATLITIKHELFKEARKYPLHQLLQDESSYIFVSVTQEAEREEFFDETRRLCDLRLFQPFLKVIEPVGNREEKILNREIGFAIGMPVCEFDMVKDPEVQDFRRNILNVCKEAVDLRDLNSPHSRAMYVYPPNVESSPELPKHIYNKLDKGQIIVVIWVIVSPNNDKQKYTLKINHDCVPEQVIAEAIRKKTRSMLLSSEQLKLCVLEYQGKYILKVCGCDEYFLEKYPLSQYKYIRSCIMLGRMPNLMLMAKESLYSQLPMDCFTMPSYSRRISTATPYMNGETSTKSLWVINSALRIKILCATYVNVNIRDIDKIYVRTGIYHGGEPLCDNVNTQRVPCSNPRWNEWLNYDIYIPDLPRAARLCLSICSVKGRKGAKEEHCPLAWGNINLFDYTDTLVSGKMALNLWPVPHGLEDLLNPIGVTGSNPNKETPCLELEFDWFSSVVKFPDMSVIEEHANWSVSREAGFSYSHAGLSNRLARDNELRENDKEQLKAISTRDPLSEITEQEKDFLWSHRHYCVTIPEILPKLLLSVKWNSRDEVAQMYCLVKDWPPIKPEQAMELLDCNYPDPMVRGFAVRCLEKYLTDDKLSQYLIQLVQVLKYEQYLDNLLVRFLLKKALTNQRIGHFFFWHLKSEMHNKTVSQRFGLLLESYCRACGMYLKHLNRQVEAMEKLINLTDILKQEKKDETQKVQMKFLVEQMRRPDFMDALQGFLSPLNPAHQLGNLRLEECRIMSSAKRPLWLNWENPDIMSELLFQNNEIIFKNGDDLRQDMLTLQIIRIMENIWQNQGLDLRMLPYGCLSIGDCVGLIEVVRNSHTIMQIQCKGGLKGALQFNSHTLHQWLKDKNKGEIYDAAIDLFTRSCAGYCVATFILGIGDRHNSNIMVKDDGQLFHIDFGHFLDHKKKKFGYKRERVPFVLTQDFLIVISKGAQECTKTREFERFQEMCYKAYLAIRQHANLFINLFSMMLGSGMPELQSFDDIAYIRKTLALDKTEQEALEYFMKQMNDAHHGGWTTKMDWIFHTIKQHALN
T2 sequence (P27986 whole entry partner): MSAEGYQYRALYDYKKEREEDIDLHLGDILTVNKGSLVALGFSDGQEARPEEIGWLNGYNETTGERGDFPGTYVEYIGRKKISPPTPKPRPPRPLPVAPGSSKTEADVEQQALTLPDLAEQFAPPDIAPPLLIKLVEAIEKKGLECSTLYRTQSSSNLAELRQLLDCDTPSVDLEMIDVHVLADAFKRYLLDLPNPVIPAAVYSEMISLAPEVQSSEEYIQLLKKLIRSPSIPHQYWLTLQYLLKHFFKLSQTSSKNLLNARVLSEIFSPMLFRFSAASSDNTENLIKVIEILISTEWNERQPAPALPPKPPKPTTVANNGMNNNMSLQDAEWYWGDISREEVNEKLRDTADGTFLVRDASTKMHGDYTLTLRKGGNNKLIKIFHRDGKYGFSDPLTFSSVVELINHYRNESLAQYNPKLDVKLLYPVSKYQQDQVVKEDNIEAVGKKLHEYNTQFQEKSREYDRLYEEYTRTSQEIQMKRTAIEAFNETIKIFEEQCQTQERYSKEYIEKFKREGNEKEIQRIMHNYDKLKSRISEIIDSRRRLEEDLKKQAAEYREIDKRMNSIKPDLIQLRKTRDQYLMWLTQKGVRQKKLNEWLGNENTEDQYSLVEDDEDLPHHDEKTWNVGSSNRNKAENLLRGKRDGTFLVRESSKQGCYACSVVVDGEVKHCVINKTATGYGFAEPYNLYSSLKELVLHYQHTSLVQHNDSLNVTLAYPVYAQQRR
T1 sequence (P28482 whole entry, the tested form may be a part): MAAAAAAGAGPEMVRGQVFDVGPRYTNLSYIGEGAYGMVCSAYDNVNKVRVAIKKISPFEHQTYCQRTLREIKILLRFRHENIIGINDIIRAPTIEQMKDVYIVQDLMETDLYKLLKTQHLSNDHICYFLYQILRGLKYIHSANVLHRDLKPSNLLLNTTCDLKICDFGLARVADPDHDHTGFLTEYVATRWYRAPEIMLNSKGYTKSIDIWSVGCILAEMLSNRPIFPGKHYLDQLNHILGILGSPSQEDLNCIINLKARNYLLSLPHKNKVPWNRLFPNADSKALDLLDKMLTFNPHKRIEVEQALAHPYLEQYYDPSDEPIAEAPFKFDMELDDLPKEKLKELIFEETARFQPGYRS

Structure (SMILES): O=C(NCc1ccccc1)Nc1ccc2ncc(-c3cn[nH]c3)cc2n1 [Compound 0060]
- IC50 [1, 3]: < 100 nM
- IC50 [2, 4]: 100 to 1000 nM

Structure (SMILES): Cn1cc(-c2cc3nc(NC(=O)NC4CCCC4)ccc3nc2Cl)cn1 [Compound 0225]
- IC50 [1, 3]: > 10000 nM
- IC50 [2, 4]: > 10000 nM

Structure (SMILES): CC(C)(C)OC(=O)N1CCN(c2cnc3ccc(NC(=O)NC4CCCC4)nc3c2)CC1 [Compound 0012]
- IC50 [1, 3]: 1000 to 10000 nM
- IC50 [2, 4]: 100 to 1000 nM

Structure (SMILES): CC(C)(C)OC(=O)n1cc(-c2cnc3ccc(NC(=O)NC4CCCc5ccccc54)nc3c2)cn1 (centres unmarked) [Compound 0066]
- IC50 [1, 3]: < 100 nM
- IC50 [2, 4]: 1000 to 10000 nM

Structure (SMILES): O=C(NCCCCc1ccc(Cl)cc1)Nc1ccc2ncc(-c3cn[nH]c3)cc2n1 [Compound 0167]
- IC50 [1, 3]: < 100 nM
- IC50 [2, 4]: 100 to 1000 nM

Structure (SMILES): O=C(Nc1ccc2ncc(-c3cn[nH]c3)cc2n1)N[C@@H]1CC[C@H](CF)C1 [Compound 0200]
- IC50 [1, 3]: < 100 nM
- IC50 [2, 4]: < 100 nM

Structure (SMILES): C[C@@H](NC(=O)Nc1ccc2ncc(-c3cnn(CCCN4CCOCC4)c3)cc2n1)C1CCCCC1 [Compound 0181]
- IC50 [1, 3]: < 100 nM
- IC50 [2, 4]: < 100 nM

Structure (SMILES): C[C@H](C[C@@H](C)Oc1ccccc1)NC(=O)Nc1ccc2ncc(-c3cn[nH]c3)cc2n1 [Compound 0161]
- IC50 [1, 3]: < 100 nM
- IC50 [2, 4]: 100 to 1000 nM

Structure (SMILES): O=C(Nc1ccc2ncc(-c3cn[nH]c3)cc2n1)NN1CCCC1 [Compound 0204]
- IC50 [1, 3]: 100 to 1000 nM
- IC50 [2, 4]: 100 to 1000 nM

Structure (SMILES): O=C(Nc1ccc2ncc(Oc3cnccn3)cc2n1)NC1CCCC1 [Compound 0224]
- IC50 [1, 3]: 1000 to 10000 nM
- IC50 [2, 4]: 100 to 1000 nM

Structure (SMILES): O=C(Nc1ccc2ncc(-c3ccc4[nH]ncc4c3)cc2n1)NC1CCCC1 [Compound 0122]
- IC50 [1, 3]: < 100 nM
- IC50 [2, 4]: < 100 nM

Structure (SMILES): COc1c(-c2cnn(C)c2)cnc2ccc(NC(=O)NC3CCCC3)nc12 [Compound 0235]
- IC50 [1, 3]: < 100 nM
- IC50 [2, 4]: < 100 nM

Structure (SMILES): CC(CCc1ccccc1)NC(=O)Nc1ccc2ncc(-c3cn[nH]c3)cc2n1 (centres unmarked) [Compound 0088]
- IC50 [1, 3]: < 100 nM
- IC50 [2, 4]: < 100 nM

Structure (SMILES): CC(C)OCCNC(=O)Nc1ccc2ncc(-c3cn[nH]c3)cc2n1 [Compound 0099]
- IC50 [1, 3]: < 100 nM
- IC50 [2, 4]: 100 to 1000 nM

Structure (SMILES): O=C(NCCCOc1ccccc1)Nc1ccc2ncc(-c3cn[nH]c3)cc2n1 [Compound 0104]
- IC50 [1, 3]: < 100 nM
- IC50 [2, 4]: 100 to 1000 nM

Structure (SMILES): O=C(NCCCCc1ccccc1)Nc1ccc2ncc(-c3cnn(CCCN4CCOCC4)c3)cc2n1 [Compound 0203]
- IC50 [1, 3]: < 100 nM
- IC50 [2, 4]: < 100 nM

Structure (SMILES): CN1CCN(CCCn2cc(-c3cnc4ccc(NC(=O)NC5(C)CCCC5)nc4c3)cn2)CC1 [Compound 0257]
- IC50 [1, 3]: 100 to 1000 nM
- IC50 [2, 4]: < 100 nM

Structure (SMILES): O=C(Nc1ccc2ncc(-c3ccc(F)cc3)cc2n1)NC1CCCC1 [Compound 0020]
- IC50 [1, 3]: < 100 nM
- IC50 [2, 4]: 100 to 1000 nM

Structure (SMILES): O=C(Nc1ccc2ncc(N3CCNCC3)cc2n1)NC1CCCC1 [Compound 0013]
- IC50 [1, 3]: 100 to 1000 nM
- IC50 [2, 4]: 100 to 1000 nM

Structure (SMILES): Cc1noc(C)c1-c1cnc2ccc(NC(=O)NC3CCCC3)nc2c1 [Compound 0050]
- IC50 [1, 3]: 100 to 1000 nM
- IC50 [2, 4]: 100 to 1000 nM

Structure (SMILES): CCNC(=O)Nc1ccc2ncc(-c3cn[nH]c3)cc2n1 [Compound 0054]
- IC50 [1, 3]: < 100 nM
- IC50 [2, 4]: 100 to 1000 nM

Structure (SMILES): CC(C)(C)OC(=O)N1CCN(CCCn2cc(-c3cnc4ccc(NC(=O)NC5CCCC5)nc4c3)cn2)CC1 [Compound 0211]
- IC50 [1, 3]: < 100 nM
- IC50 [2, 4]: < 100 nM

Structure (SMILES): O=C(Nc1ccc2ncc(-c3cnn(CCCN4CCNCC4)c3)cc2n1)NC1CCCC1 [Compound 0212]
- IC50 [1, 3]: < 100 nM
- IC50 [2, 4]: < 100 nM

Structure (SMILES): O=C(NCCCN1CCCCC1)Nc1ccc2ncc(-c3cn[nH]c3)cc2n1 [Compound 0202]
- IC50 [1, 3]: 100 to 1000 nM
- IC50 [2, 4]: 1000 to 10000 nM

Structure (SMILES): CCN1CCC(n2cc(-c3cnc4ccc(NC(=O)NC5CCCC5)nc4c3)cn2)CC1 [Compound 0230]
- IC50 [1, 3]: 100 to 1000 nM
- IC50 [2, 4]: < 100 nM

Structure (SMILES): CN(C)CCn1cc(-c2cnc3ccc(NC(=O)NC4CCCC4)nc3c2)cn1 [Compound 0018]
- IC50 [1, 3]: 100 to 1000 nM
- IC50 [2, 4]: < 100 nM

Structure (SMILES): CCN(CC)CCNC(=O)Nc1ccc2ncc(-c3cn[nH]c3)cc2n1 [Compound 0109]
- IC50 [1, 3]: 1000 to 10000 nM
- IC50 [2, 4]: > 10000 nM

Structure (SMILES): O=C(Nc1ccc2ncc(-c3cnn(CCCCN4CCOCC4)c3)cc2n1)NC1CCCC1 [Compound 0207]
- IC50 [1, 3]: < 100 nM
- IC50 [2, 4]: < 100 nM

Structure (SMILES): O=C(NCC1CCCCO1)Nc1ccc2ncc(-c3cn[nH]c3)cc2n1 (centres unmarked) [Compound 0189]
- IC50 [1, 3]: < 100 nM
- IC50 [2, 4]: 100 to 1000 nM

Structure (SMILES): O=C(Nc1ccc2ncc(-c3cn[nH]n3)cc2n1)NC1CCCC1 [Compound 0156]
- IC50 [1, 3]: < 100 nM
- IC50 [2, 4]: < 100 nM

Structure (SMILES): CC(C)[C@@H](C)NC(=O)Nc1ccc2ncc(-c3cn[nH]c3)cc2n1 [Compound 0082]
- IC50 [1, 3]: < 100 nM
- IC50 [2, 4]: < 100 nM

Structure (SMILES): Cn1cc(-c2cnc3ccc(NC(=O)NC4CCCC4)nc3c2)cn1 [Compound 0003]
- IC50 [1, 3]: < 100 nM
- IC50 [2, 4]: < 100 nM

Structure (SMILES): O=C(Nc1ccc2ncc(-c3cn[nH]c3)cc2n1)NC1CCC1 [Compound 0084]
- IC50 [1, 3]: < 100 nM
- IC50 [2, 4]: < 100 nM

Structure (SMILES): O=C(Nc1ccc2ncc(-c3cnn(CCCN4CCCC4)c3)cc2n1)NC1CCCC1 [Compound 0246]
- IC50 [1, 3]: < 100 nM
- IC50 [2, 4]: < 100 nM

Structure (SMILES): COCCN(CCOC)CCn1cc(-c2cnc3ccc(NC(=O)NC4CCCC4)nc3c2)cn1 [Compound 0048]
- IC50 [1, 3]: < 100 nM
- IC50 [2, 4]: < 100 nM

Structure (SMILES): Cn1cc(-c2cc3nc(NC(=O)NC4CCCC4)ccc3nc2N)cn1 [Compound 0227]
- IC50 [1, 3]: 1000 to 10000 nM
- IC50 [2, 4]: < 100 nM

Structure (SMILES): CCOC(=O)CNC(=O)Nc1ccc2ncc(-c3cn[nH]c3)cc2n1 [Compound 0062]
- IC50 [1, 3]: 100 to 1000 nM
- IC50 [2, 4]: 1000 to 10000 nM

Structure (SMILES): C[C@@H](CN(C)C)Cn1cc(-c2cnc3ccc(NC(=O)NC4CCCC4)nc3c2)cn1 [Compound 0245]
- IC50 [1, 3]: 100 to 1000 nM
- IC50 [2, 4]: < 100 nM

Structure (SMILES): O=C(Nc1ccc2ncc(-c3cnc4ccccc4c3)cc2n1)NC1CCCC1 [Compound 0121]
- IC50 [1, 3]: 1000 to 10000 nM
- IC50 [2, 4]: 1000 to 10000 nM

Structure (SMILES): O=C(NCCCCc1ccc(F)cc1)Nc1ccc2ncc(-c3cn[nH]c3)cc2n1 [Compound 0172]
- IC50 [1, 3]: < 100 nM
- IC50 [2, 4]: 100 to 1000 nM

Structure (SMILES): O=C(Nc1ccc2ncc(-c3cnn(CCN4CCOCC4)c3)cc2n1)NC1C[C@H]2CC[C@@H]1C2 (some centres unmarked) [Compound 0114]
- IC50 [1, 3]: < 100 nM
- IC50 [2, 4]: < 100 nM

Structure (SMILES): O=C(Nc1ccc2ncc(-c3cn[nH]c3)cc2n1)NC1CCCC1 [Compound 0137]
- IC50 ([1]; read-out: ERK2, IC50): 7 nM
- IC50 [1, 3]: < 100 nM
- IC50 ([2]; read-out: PI3Kα, IC50): 10 nM
- IC50 [2, 4]: < 100 nM

Structure (SMILES): O=C(Nc1ccc2ncc(-c3cn[nH]c3)cc2n1)NC1CC[C@H](O)C1 (some centres unmarked) [Compound 0091]
- IC50 [1, 3]: < 100 nM
- IC50 [2, 4]: < 100 nM

Structure (SMILES): Cc1n[nH]c(C)c1-c1cnc2ccc(NC(=O)NC3CCCC3)nc2c1 [Compound 0049]
- IC50 [1, 3]: < 100 nM
- IC50 [2, 4]: < 100 nM

Structure (SMILES): COCC1(NC(=O)Nc2ccc3ncc(-c4cn[nH]c4)cc3n2)CCC1 [Compound 0196]
- IC50 [1, 3]: 100 to 1000 nM
- IC50 [2, 4]: 100 to 1000 nM

Structure (SMILES): S=C(Nc1ccc2ncc(-c3cnn(CCN4CCOCC4)c3)cc2n1)NC1CCCC1 [Compound 0138]
- IC50 [1, 3]: < 100 nM
- IC50 [2, 4]: < 100 nM

Structure (SMILES): O=C(Nc1ccc2ncc(-c3cn[nH]c3)cc2n1)NC1CCOC1 (centres unmarked) [Compound 0075]
- IC50 [1, 3]: < 100 nM
- IC50 [2, 4]: 100 to 1000 nM

Structure (SMILES): O=C1CN(CCn2cc(-c3cnc4ccc(NC(=O)NC5CCCC5)nc4c3)cn2)CCN1 [Compound 0052]
- IC50 [1, 3]: < 100 nM
- IC50 [2, 4]: < 100 nM

Structure (SMILES): CC1CN(c2cnc3ccc(NC(=O)NC4CCCC4)nc3c2)CCO1 (centres unmarked) [Compound 0090]
- IC50 [1, 3]: 100 to 1000 nM
- IC50 [2, 4]: < 100 nM

Structure (SMILES): O=C(Nc1ccc2ncc(-c3cn[nH]c3)cc2n1)N[C@H]1CCNC1 [Compound 0074]
- IC50 [1, 3]: < 100 nM
- IC50 [2, 4]: 1000 to 10000 nM

Structure (SMILES): CN(C)CCCNC(=O)Nc1ccc2ncc(-c3cn[nH]c3)cc2n1 [Compound 0106]
- IC50 [1, 3]: 100 to 1000 nM
- IC50 [2, 4]: 1000 to 10000 nM

Structure (SMILES): O=C(Nc1ccc2ncc(-c3ccncc3)cc2n1)NC1CCCC1 [Compound 0007]
- IC50 [1, 3]: < 100 nM
- IC50 [2, 4]: < 100 nM

Structure (SMILES): CCCCNC(=O)Nc1ccc2ncc(-c3cn[nH]c3)cc2n1 [Compound 0093]
- IC50 [1, 3]: < 100 nM
- IC50 [2, 4]: < 100 nM

Structure (SMILES): CC1(NC(=O)Nc2ccc3ncc(N4CCOCC4)cc3n2)CCCC1 [Compound 0253]
- IC50 [1, 3]: < 100 nM
- IC50 [2, 4]: < 100 nM

Reference: patent US8841456B2, “1,5-naphthyridine derivative or salt thereof” (FUJIFILM Corporation, priority 2011, dated 2014)
